The results in this text go back to patent US20230285442A1, “USE OF OLIGOCHITOSANS AND DERIVATIVES THEREOF FOR NEUTRALIZING VIRAL AGENTS” (priority 2020, published 2023).

One series in a line: Solubility in water. It counts as physicochemical.
In another series the test system is HIV-1 89.6. Description: Anti-HIV activity in PBMC culture ex vivo, p24 in culture supernatants. Type of series: cell-based, human. As to conditions: PBMCs infected with HIV-1 89.6, day 3 of the culture. As to the method: PBMCs were treated with NCD1 or not treated, followed by infection with HIV-1 89.6. Samples were pelleted on days 0, 2, and 3. Culture supernatants were assayed for p24 concentration. The assay was done in triplicate.
HIV p24 Assay: HIV-1 p24 ELISA was performed using HIV-1 p24 antigen capture assay according to manufacturer's protocol (Advanced BioSciences Laboratory).
To confirm the activity of the newly synthesized compounds in HIV infected human cells, peripheral blood mononuclear cells (PBMCs) from healthy humans were cultured and parallel assays with PBMCs treated with NCD1 and samples with no treatment were run, followed by infection with HIV-1 89.6. Samples were pelleted on days 0, 2, and 3. Culture supernatants were assayed for p24 concentration.

For another series, the system named is HIV-89.6. Description: HIV binding in culture supernatant, total HIV RNA in supernatant. As to conditions: non-sulfated, unmodified oligochitosan. As to the method:
The desired compound in PBS or DMSO was incubated with virus for 30 min and then centrifuged. Total RNA isolated from supernatant was quantified. The assay was done in triplicate.
Medium/blood samples. To ensure uniformity and reproducibility, standards with known viral copy numbers of HIV89.6 (NIH NIAID repository) were prepared. A known amount of virus was spiked into cell culture medium in ten-fold serial dilutions. HIV-1 RNA was extracted using the High Pure viral RNA kit (Ambion). Complementary DNA (cDNA) was synthesized with the SuperScript III cDNA Synthesis Kit (Invitrogen) and amplified and quantified using primers specific for HIV-1 LTR. Real-time PCR amplification was performed in a CFX96™ Real-Time system (Bio-Rad, Hercules, CA). […] HIV-1 specific amplicons were detected using SYBR Green (Bio-Rad). The number of HIV-1 RNA copies in each test template was measured by its threshold cycle (Ct) as determined from the curve of serially diluted standards using data analysis software (Bio-Rad CFX Manager). […] Quantification of HIV-1 RNA in each test sample was back calculated and viral load was expressed as copies/ml. […]
Quantitative real time PCR was performed using BioRad CFX 96 with the known amounts of HIV-1 RNA as standards. The starting quantity of HIV-1 RNA in the samples treated with different compounds was determined using the standard curve and is plotted on the graph. […]

For the substance Oligochitosan 10 kDa [NCD1], the solubility in water result in “Solubility in water” was “soluble”. Also, in the series on HIV-1 89.6, the “p24 levels in culture supernatants, treated vs non-treated cells” value is given as “significantly reduced”. For the same substance, in the series on HIV-89.6, the “binding to HIV” value is “surprising and unexpected binding to HIV”.

With Starch azure [NCD9], the solubility in water entry in “Solubility in water” is given as “insoluble in water”.
